Measured values reported in the SangsterLogP compilation.

Legend:
[1] = not given; remark: listed apart in the source
[2] = pH 7.4
[3] = method code SF-AS, from DOI: 10.1021/acs.jmedchem.5b01455, PMID: 26523333; details: pH 7.4
[4] = not given; remark: listed apart in the source
[5] = method code SF-AS, from DOI: 10.1039/ft9959100995
[6] = method code SF-AS, from Jha, T.; Debnath, A.; Mazumdar, A.; Sengupta, C.; De, A. (1986). Hansch analysis of antineoplastic agents, 5-N-substituted-2-p-substituted benzenesulfonyl-L-glutamines. Ind. J. Chem., Sect. B, …
[7] = not given; remark: listed apart in the source
[8] = not given; remark: listed apart in the source
[9] = not given; remark: listed apart in the source
[10] = not given; remark: listed apart in the source
[11] = method code SF-GLC, from DOI: 10.1007/bf00224496
[12] = method code SF, from DOI: 10.1016/s0960-894x(01)80459-5
[13] = method code SF-GLC, from DOI: 10.1007/s002679900238, PMID: 10486045
[14] = not given; remark: listed apart in the source
[15] = not given; remark: listed apart in the source
[16] = method code SF-AS, from DOI: 10.1021/jm991080o, PMID: 10579844; details: pH 7.4
[17] = method code SF-AS, from DOI: 10.1515/znc-1987-7-832, PMID: 2961152
[18] = not given; remark: listed apart in the source
[19] = method code SF, from DOI: 10.1071/sr9810061
[20] = method code SF-HPLC, from DOI: 10.1248/cpb.37.2861, PMID: 2611948; details: pH 4.0
[21] = not given; remark: listed apart in the source
[22] = method code SF-AS, from DOI: 10.1016/j.ejps.2010.09.003, PMID: 20854904; details: pH 10.0
[23] = not given; remark: listed apart in the source
[24] = method code SF-AS, from DOI: 10.1021/jf60167a006
[25] = method code SF, from DOI: 10.1016/j.nucmedbio.2004.02.004, PMID: 15219281
[26] = not given; remark: listed apart in the source
[27] = method code SF-AS, from DOI: 10.1016/0378-5173(84)90231-x
[28] = not given; remark: listed apart in the source
[29] = method code SF-AS, from DOI: 10.1021/bi00405a042
[30] = method code SF-RC, from DOI: 10.1016/j.nucmedbio.2008.01.001, PMID: 18355684; details: pH 7.4
[31] = not given; remark: listed apart in the source
[32] = not given; remark: listed apart in the source
[33] = method code SF-ESR, from DOI: 10.1515/znc-1987-7-832, PMID: 2961152
[34] = method code SF-AS, from DOI: 10.1002/jps.2600630206, PMID: 4204981
[35] = not given; remark: listed apart in the source
[36] = not given; remark: listed apart in the source
[37] = method code SF-AS, from DOI: 10.1016/s0021-9673(00)82600-x
[38] = from Sparatore, F.; Grieco, C.; Silipo, C.; Vittoria, A. (1979). Use of regression analysis to correlate auxin activity with chemical physical and structural properties of benzotriazole derivatives. III. …; details: pH 5.6

CC(=O)c1ccc2cccccc1-2
logP: 2.87

CCC(O)(CC(N)=O)c1ccccc1 (stereo not drawn)
logP [1]: 1.83

CC(=O)Oc1ccccc1C(=O)OCCN(C)C(C)=O
logD [2]: 1.46

CC(F)(F)Cc1c[nH]c2ccccc12
logD [3]: 3.3

Clc1cccc2cccc(Cl)c12
logP [4]: 4.41

CC(=O)OCCOCn1cnc2cnc(N)nc21
logP [5]: -0.61

NC(=O)CCC(NS(=O)(=O)c1ccccc1)C(=O)O (stereo not drawn)
logP [6]: 0.58

CC(C)=CCC/C(C)=C/C=O
logP [7]: 3.76

Cc1[nH]cnc1CSCCNc1cc(=O)cc[nH]1
logP [8]: 0.8

Brc1cc(Br)cc(-c2cc(Br)cc(Br)c2)c1
logP [9]: 7.41

OC[C@@H]1C[C@@H](F)[C@H](n2cnc3c(Cl)ncnc32)O1
logP [10]: 0.32

C=C(C)C1CC=C(C)CC1 (stereo not drawn)
logP [11]: 4.4

CCCCCCCCCCCCCCCCOP(=O)(OCC1CC(O)C(n2cnc3c(N)ncnc32)O1)OCC1OC(n2cc(C)c(=O)[nH]c2=O)CC1N=[N+]=[N-] (stereo not drawn)
logP [12]: 3.26

Nc1ncnc2c1ncn2[C@@H]1O[C@H](CO)C[C@H]1O
logP [12]: -0.65

CC1=CCC(C(C)C)=CC1
logP [13]: 4.5

Cc1nccn1CC1CCc2c(c3ccccc3n2C)C1=O (stereo not drawn)
logP [14]: 1.92

Clc1cc2oc3cc(Cl)c(Cl)c(Cl)c3c2cc1Cl
logP [15]: 6.7

CC(=O)Oc1ccccc1C(=O)OCS(C)=O (stereo not drawn)
logD [2]: 0.11

CCc1c(O)c(=O)ccn1CCOC(C)=O
logD [16]: -0.24

CC1CCC(NC(=O)N(CCCl)N=O)CC1 (stereo not drawn)
logP [17]: 3.25

N#Cc1ccc(/C=C2\CCCc3ccccc3C2=O)cc1
logP [18]: 4.27

O=Cc1ccc2cccccc1-2
logP: 2.64

C=CC(=C)CCC=C(C)C
logP [11]: 4.5

CCOP(=O)(OCC)SCS(=O)(=O)C(C)(C)C
logP [19]: 2.76

O=c1[nH]c(=O)n(Cc2ccc(Cl)cc2)cc1F
logD [20]: 1.64

CCCCNC(=O)CCC(NS(=O)(=O)c1ccc(C)cc1)C(=O)O (stereo not drawn)
logP [6]: 0.02

CCOP(=O)(OCC)SCS(=O)C(C)(C)C (stereo not drawn)
logP [19]: 2.66

O=C(CCCCCO[N+](=O)[O-])Oc1ccccc1C(=O)O
logP [21]: 2.49

O=c1[nH]c(=O)n(Cc2ccccc2)cc1F
logD [20]: 0.89

CN(C)CCOC(=O)c1ccccc1
logD [22]: 1.76

O=C(CCCO[N+](=O)[O-])Oc1ccccc1C(=O)O
logP [21]: 1.95

CC1(C)C2CCC1(C)C(OCCO)C2 (stereo not drawn)
logP [13]: 3.32

CCC(O)c1c(O)c(=O)cc(C)n1C (stereo not drawn)
logD [16]: -0.13

Clc1cc(Cl)c(-c2cc(Cl)c(Cl)c(Cl)c2Cl)cc1Cl
logP [23]: 7.15

CC(=O)Nc1ncc2ncn(COCCOC(C)=O)c2n1
logP [5]: -1.05

CCOP(=O)(OCC)Oc1c(Cl)cc(SC)cc1Cl
logP [24]: 3.72

O=c1[nH]c(=O)n([C@@H]2O[C@H](CO)[C@@H](O)[C@H]2F)cc1/C=C/I
logP [25]: 1.21

Clc1cc2oc3c(Cl)c(Cl)c(Cl)cc3c2cc1Cl
logP [15]: 6.31

Cc1cccc(C2CNCCO2)c1 (stereo not drawn)
logP [26]: 1.52

CC(C)(C)[N+]([O-])=Cc1ccc(F)cc1
logP [27]: 1.42

FCC(F)Cc1c[nH]c2ccccc12 (stereo not drawn)
logD [3]: 2.54

CCOP(=S)(OCC)SCSc1ccc(Cl)cc1
logP [28]: 4.53

CNC(=O)CCc1ccccc1
logP [29]: 1.17

CNC(=O)Oc1cc(C)c(N(C)C)c(C)c1
logP [28]: 2.56

CC(C)(C)[N+]([O-])=Cc1ccccc1
logP [27]: 1.22

CNC(=O)CCc1c[nH]c2ccccc12
logP [29]: 1.23

c1ccc2c(c1)ccc1ccccc12
logP [23]: 4.69

CN1CCC=C(c2nsnc2SCCC(F)(F)F)C1
logD [30]: 2.9

Clc1cc2c(Cl)ccc(Cl)c2c(Cl)c1Cl
logP [31]: 6.46

Clc1ccccc1-c1ccccc1Cl
logP [32]: 4.8

Clc1ccc(-c2ccc(Cl)cc2Cl)cc1
logP [32]: 5.62

CC1(C)CC(NC(=O)N(CCCl)N=O)CC(C)(C)N1[O]
logP [33]: 1.6

CCC(C)(Oc1ccc(Cl)cc1)C(=O)O (stereo not drawn)
logP [34]: 2.9

CCCC(C)(COC(N)=O)COC(N)=O
logP [18]: 1.12

CC(C)N1CCOC(c2cccc(Cl)c2)C1 (stereo not drawn)
logP [26]: 3.27

Clc1cc2c(c(Cl)c1Cl)Oc1c(Cl)c(Cl)c(Cl)c(Cl)c1O2
logP [35]: 8.2

CCC1(CC)C(=O)NC(=O)N=C1OC(C)C
logP [36]: 1.86

CCC1(c2ccccc2)C(=O)NC(=O)N(C(C)C)C1=O (stereo not drawn)
logP [36]: 2.58

O=c1[nH]c(=O)n(C2CC(O)C(CO)O2)cc1/C=C/I (stereo not drawn)
logP [25]: 1.1

CN(C)c1cnn(-c2ccccc2)c(=O)c1Cl
logP [37]: 1.55

CCOP(=O)(OCC)Oc1ccccc1
logP [24]: 1.64

CC1(C)CC(NC(=O)N(CCCl)N=O)C(C)(C)[N+]1(C)[O-] (stereo not drawn)
logP [33]: 1.64

Clc1ccc(-c2ccc(Cl)c(Cl)c2)cc1Cl
logP [9]: 6.04

CCC(O)(C(N)=O)c1ccccc1 (stereo not drawn)
logP [1]: 1.2

Clc1cc2c(Cl)c(Cl)c(Cl)c(Cl)c2cc1Cl
logP [31]: 6.77

CC(C)=CCCC(C)CCO (stereo not drawn)
logP [7]: 3.38

OCCCCCn1nnc2ccccc21
logD [38]: 1.51

Clc1cccc2c1Oc1ccccc1O2
logP [35]: 4.75

CN(C(=O)N(CCCl)N=O)C1CC(C)(C)N(O)C(C)(C)C1
logP [17]: 1.7

O=C(CCN1CCOCC1)c1ccccc1
logD [22]: 1.24

CC[C@@H](CO)NCCN[C@@H](CC)CO
logP [14]: -0.4

COc1ncnc2c1ncn2[C@@H]1O[C@H](CO)C[C@H]1F
logP [10]: 0.25

OCCCCCCn1nc2ccccc2n1
logD [38]: 2.26

O=C(O)C1CCc2ccccc2O1 (stereo not drawn)
logP [34]: 1.9

CN1CCC=C(c2nsnc2SCCCF)C1
logD [30]: 2.4

Clc1cc2ccccc2cc1Cl
logP [4]: 4.71

Cc1[nH]cnc1CSCCNC1=NC(=O)CN1
logP [8]: -0.5

COc1cnn(-c2ccccc2)c(=O)c1Br
logP [37]: 1.42
